Experimental data: patent publication US8153360B2, “Flavivirus fusion inhibitors” (The Administrators of the Tulane Educational Fund, priority 2002, dated 2012)

Key:
[1] = test system: H77-E1E2 pseudotype expressing envelope glycoproteins E1 and E2 of the H77 strain of HCV; test: HCV pseudotype infectivity, luciferase activity of cell lysates; format: cell-based, hepatitis C virus; settings: peptide about 25 μM (asterisked peptides 10 μM or less); for H77-E1E2 number of luciferase units (lumens) produced after infection: 72 h at 37° C., vehicle 113,733; for Percent Inhibition (H77-E1E2 HCV pseudotype infectivity): relative to DMSO vehicle
[2] = test system: pseudotype expressing the envelope glycoprotein of murine leukemia virus (MLV); test: MLV pseudotype infectivity, luciferase activity (peptide/cytotoxicity control); format: cell-based; settings: peptide about 25 μM (asterisked peptides 10 μM or less); for MLV number of luciferase units (lumens) produced after infection: 72 h at 37° C., vehicle 439,158; for Percent inhibition (MLV pseudotype infectivity): relative to DMSO vehicle
HIV-1 [3] = settings: preliminary results from phase III clinical trials; cited from earlier work
HIV-1 [4] = settings: cited from earlier work

Substance | H77-E1E2 number of luciferase units (lumens) produced after infection [1] | MLV number of luciferase units (lumens) produced after infection [2] | Percent inhibition (MLV pseudotype infectivity) [2] | Percent Inhibition (H77-E1E2 HCV pseudotype infectivity) [1] | Effect on HIV-1 load in AIDS patients (HIV-1 [3]) | Inhibition of HIV-1 infectivity (HIV-1 [4])
AALVVAQLLRIPQAIMDM [Peptide 73] | 100,666 luciferase units (lumens) | 433,001 luciferase units (lumens) | 1.40% | – | – | –
AHWGVLAGIKYFSMVGNW [Peptide 76] | 96,283 luciferase units (lumens) | 473,757 luciferase units (lumens) | −7.88% | – | – | –
ALYVGDLCGSVFLVGQLF [Peptide 65] | 87,726 luciferase units (lumens) | 491,789 luciferase units (lumens) | −11.98% | – | – | –
CGSVFLVGQLFTFSPRHH [Peptide 66] | 23,387 luciferase units (lumens) | 189,683 luciferase units (lumens) | 56.81% | – | – | –
DAILHTPGCVPCVREGNA [Peptide 57] | 169,860 luciferase units (lumens) | 331,852 luciferase units (lumens) | 24.44% | – | – | –
GCVPCVREGNASRCWVAV [Peptide 58] | 118,767 luciferase units (lumens) | 329,895 luciferase units (lumens) | 24.98% | – | – | –
GIKYFSMVGNWAKVLVVL [Peptide 77] | 56,425 luciferase units (lumens) | 321,076 luciferase units (lumens) | 26.89% | – | – | –
GQLFTFSPRHHWTTQDCN [Peptide 67] | 64,601 luciferase units (lumens) | 357,577 luciferase units (lumens) | 28.58% | – | – | –
GSATLCSALYVGDLCGSV [Peptide 64] | 113,108 luciferase units (lumens) | 316,948 luciferase units (lumens) | 27.83% | – | – | –
HRMANMMMNWSPTAALV [Peptide 71] | 83,489 luciferase units (lumens) | 533,765 luciferase units (lumens) | −21.54% | – | – | –
IMDMIAGAHWGVLAGIKY [Peptide 75] | 113,359 luciferase units (lumens) | 420,026 luciferase units (lumens) | 4.36% | – | – | –
LLRIPQAIMDMIAGAHWG [Peptide 74] | 32,888 luciferase units (lumens) | 467,876 luciferase units (lumens) | −6.54% | – | – | –
LPTTQLRRHIDLLVGSAT [Peptide 62] | 115,966 luciferase units (lumens) | 415,014 luciferase units (lumens) | 5.50% | – | – | –
LVVLLLFAGVDAETHVTG [Peptide 79] | 101,702 luciferase units (lumens) | 740,034 luciferase units (lumens) | −68.51% | – | – | –
MMNWSPTAALVVAQLLRI [Peptide 72] | 75,763 luciferase units (lumens) | 392,680 luciferase units (lumens) | 10.58% | – | – | –
PRHHWTTQDCNCSIYPGH [Peptide 68] | 79,297 luciferase units (lumens) | 498,991 luciferase units (lumens) | −13.62% | – | – | –
QDCNCSIYPGHITGHRMA [Peptide 69] | 196,922 luciferase units (lumens) | 354,027 luciferase units (lumens) | 19.39% | – | – | –
RHIDLLVGSATLCSALYV [Peptide 63] | 57,915 luciferase units (lumens) | 438,440 luciferase units (lumens) | 0.16% | – | – | –
SAYQVRNSSGLYHVTNDC [Peptide 53] | 113,469 luciferase units (lumens) | 443,528 luciferase units (lumens) | −9.95% | – | – | –
SCLTVPASAYQVRNSSGL [Peptide 52] | 133,259 luciferase units (lumens) | 533,179 luciferase units (lumens) | −21.4% | – | – | –
SIVYEAADAILHTPGCVP [Peptide 56] | 65,612 luciferase units (lumens) | 433,459 luciferase units (lumens) | 1.30% | – | – | –
SSGLYHVTNDCPNSSIVY [Peptide 54] | 74 luciferase units (lumens) | 280,113 luciferase units (lumens) | 36.22% | – | – | –
TNDCPNSSVVYEAADAIL [Peptide 55] | 112,470 luciferase units (lumens) | 447,957 luciferase units (lumens) | −2.00% | – | – | –
VATRDGKLPTTQLRRHID [Peptide 61] | 148,796 luciferase units (lumens) | 423,925 luciferase units (lumens) | 3.47% | – | – | –
VGNWAKVLVVLLLFAGVD [Peptide 78] | 137,700 luciferase units (lumens) | 402,953 luciferase units (lumens) | 8.24% | – | – | –
WVAVTPTVATRDGKLPTT [Peptide 59] | 91,794 luciferase units (lumens) | 446,063 luciferase units (lumens) | −1.57% | 19.29% | – | –
WVAVTPTVATRDGKLPTT [Peptide 60] | 98,766 luciferase units (lumens) | 340,384 luciferase units (lumens) | 22.49% | 13.16% | – | –
YPGHITGHRMANMMMNW [Peptide 70] | 15,717 luciferase units (lumens) | 553,120 luciferase units (lumens) | −25.95% | – | – | –
enfuvirtide | – | – | – | – | substantially reduce HIV-1 load | inhibit HIV-1 infectivity
